Measurements taken from EP2762573A1, “In vitro method for determining cholestatic properties of a compound” (priority 2013, dated 2014).
Read-outs that look alike come from different tables or passages of the source. One block for each compound: values may come before it.

Tests used:
Bcl2l11 = assay: Biomarkers validation by q-pcr in precision cut liver slices: Bcl2l11 expression
Method: (§1) 23-weeks old male C57BL/6 mice were obtained from Harlan (Horst, The Netherlands). Animals were kept for 1 week at a housing temperature of 22°C and at a relative humidity of 30-70%. The lighting cycle was 12-h light and 12-h dark. At the age of 24 weeks animals were sacrificed by an overdose of isoflurane. The treatment protocol was approved by the Ethical Committee for Animal Experiments at Wageningen University.
(§2) Immediately after the animals were killed the liver was perfused with PBS and placed in ice-cold Krebs-Henseleit buffer (KHB) (pH 7.4, supplemented with 11 mM glucose). Liver tissue was transported to the laboratory within approximately 30 min and cylindrical liver cores were produced using a surgical biopsy punch with diameter of 5 mm (KAI, SynErgo Europe, Romania). Liver cores were placed in a Krumdieck tissue slicer (Alabama Research and Development, Munford, AL) filled with ice-cold KHB aerated with carbogen and supplemented with 11 mM glucose. Precesion cut liver slices (PCLS) with a diameter of 5 mm, a thickness of 0.2 mm and a weight of approximately 10 mg were prepared. Immediately after preparation, slices were transferred into culture plates filled with pre-warmed (37 degrees C) Williams E medium (WEM). Three liver slices were pre-cultured in one well of the 6-well plate filled with 4 ml of WEM for one hour with continuous shaking (70 rpm). Incubations were performed in an oxygen controlled incubator (Galaxy 48 R New Brunswick, Nijmegen, the Netherlands) at 80% of oxygen; 5% CO2 and the remaining gas volume was filled up to […] with N2. After one hour of pre-incubation, media were removed and replaced with fresh media containing test compounds or appropriate solvents. After incubations, samples were snap-frozen in liquid nitrogen and stored in -80 °C for further analysis. Samples dedicated to histology were stored in 4 % formaldehyde at room temperature.
(§3) PCLS were incubated at the same conditions as described above. Slices were exposed for 24 and 48 hours to one concentration of the tested compounds or controls. Concentrations used in the exposure experiments were preselected in the dose selection experiments for each drug individually. […] For the necrotic compounds: 1000 uM acetaminophen, 5 µM paraquat and 1000 uM isoniazid. Liver slices obtained from five mice were used in five toxic compound or control exposure experiments performed at the same time. Dose selection experiments and exposure experiments were performed at different days. Therefore, ATP, LDH, and protein assays were performed again for the exposure experiments to confirm that the selected doses did also not affect slice viability in these experiments.
(§4) In further studies, expression of ten candidate biomarkers in PCLS was analyzed by q-pcr using the Biorad CFX96 TM Real-Time Detection System (Bio-Rad, Veenendaal, The Netherlands) with the following cycling conditions: 15 min 95°C followed by 40 cycles of 15s 95 °C and 1 min 60 °C. Reactions were performed in 10 µl and contained 20 ng cDNA, 1x TaqMan PCR Master Mix (Applied Biosystems, Foster City, CA), and depending on the analysed gene, 250 nM probe and 900 nM primer (for actin b) or 1xTaqMan gene expression assay (for the remaining genes) (Applied Biosystems, foster City, CA).

Parp16 = assay: Biomarkers validation by q-pcr in precision cut liver slices: Parp16 expression
Method: as §1, §2, §3, §4

Mras = assay: Biomarkers validation by q-pcr in precision cut liver slices: Mras expression
Method: as §1, §2, §3, §4

Myo1e = assay: Biomarkers validation by q-pcr in precision cut liver slices: Myo1e expression
Method: as §1, §2, §3, §4

Nme6 = assay: Biomarkers validation by q-pcr in precision cut liver slices: Nme6 expression
Method: as §1, §2, §3, §4

ABCG5 = assay: Biomarkers validation by q-pcr in precision cut liver slices: ABCG5 expression
Method: as §1, §2, §3, §4

ABCG8 = assay: Biomarkers validation by q-pcr in precision cut liver slices: ABCG8 expression
Method: as §1, §2, §3, §4

SERPINE1 = assay: Biomarkers validation by q-pcr in precision cut liver slices: SERPINE1 expression
Method: as §1, §2, §3, §4

BAAT = assay: Biomarkers validation by q-pcr in precision cut liver slices: BAAT expression
Method: as §1, §2, §3, §4

KLF15 = assay: Biomarkers validation by q-pcr in precision cut liver slices: KLF15 expression
Method: as §1, §2, §3, §4

PCLS = assay: Cytotoxicity analysis - dose selection experiments (LDH, ATP, protein assay)
Method: as §1, §2, §3

*fold change 1, gene expression level Bcl2111 (Bcl2l11; male, C57BL/6, mouse): 1,9 | *fold change 2, gene expression level Bcl2111 (Bcl2l11; male, C57BL/6, mouse): 1,7 | *fold change 3, gene expression level Bcl2111 (Bcl2l11; male, C57BL/6, mouse): 1,3 | *fold change 4, gene expression level Bcl2111 (Bcl2l11; male, C57BL/6, mouse): -1,2 | *fold change 5, gene expression level Bcl2111 (Bcl2l11; male, C57BL/6, mouse): -1,2 | *fold change 1, gene expression level Parp 16 (Parp16; male, C57BL/6, mouse): -1,0 | *fold change 2, gene expression level Parp 16 (Parp16; male, C57BL/6, mouse): -1,0 | *fold change 3, gene expression level Parp 16 (Parp16; male, C57BL/6, mouse): 1,2 | *fold change 4, gene expression level Parp 16 (Parp16; male, C57BL/6, mouse): -2,3 | *fold change 5, gene expression level Parp 16 (Parp16; male, C57BL/6, mouse): -1,8 | *fold change 1, gene expression level Mras (Mras; male, C57BL/6, mouse): 1,7 | *fold change 2, gene expression level Mras (Mras; male, C57BL/6, mouse): -1,1 | *fold change 3, gene expression level Mras (Mras; male, C57BL/6, mouse): 1,3 | *fold change 4, gene expression level Mras (Mras; male, C57BL/6, mouse): -1,3 | *fold change 5, gene expression level Mras (Mras; male, C57BL/6, mouse): -1,3 | *fold change 1, gene expression level Myo 1e (Myo1e; male, C57BL/6, mouse): 1,5 | *fold change 2, gene expression level Myo 1e (Myo1e; male, C57BL/6, mouse): 1,3 | *fold change 3, gene expression level Myo 1e (Myo1e; male, C57BL/6, mouse): 1,3 | *fold change 4, gene expression level Myo 1e (Myo1e; male, C57BL/6, mouse): -1,3 | *fold change 5, gene expression level Myo 1e (Myo1e; male, C57BL/6, mouse): 1,1 | *fold change 1, gene expression level Nme6 (Nme6; male, C57BL/6, mouse): 1,3 | *fold change 2, gene expression level Nme6 (Nme6; male, C57BL/6, mouse): 1,2 | *fold change 3, gene expression level Nme6 (Nme6; male, C57BL/6, mouse): 1,1 | *fold change 4, gene expression level Nme6 (Nme6; male, C57BL/6, mouse): -1,3 | *fold change 5, gene expression level Nme6 (Nme6; male, C57BL/6, mouse): -1,1 | *fold change 1, gene expression level ABCG5 (ABCG5; male, C57BL/6, mouse): 2,0 | *fold change 2, gene expression level ABCG5 (ABCG5; male, C57BL/6, mouse): 3,0 | *fold change 3, gene expression level ABCG5 (ABCG5; male, C57BL/6, mouse): 1,1 | *fold change 4, gene expression level ABCG5 (ABCG5; male, C57BL/6, mouse): 2,0 | *fold change 5, gene expression level ABCG5 (ABCG5; male, C57BL/6, mouse): 2,0 | *fold change 1, gene expression level ABCG8 (ABCG8; male, C57BL/6, mouse): 2,1 | *fold change 2, gene expression level ABCG8 (ABCG8; male, C57BL/6, mouse): 2,8 | *fold change 3, gene expression level ABCG8 (ABCG8; male, C57BL/6, mouse): 1,0 | *fold change 4, gene expression level ABCG8 (ABCG8; male, C57BL/6, mouse): 2,3 | *fold change 5, gene expression level ABCG8 (ABCG8; male, C57BL/6, mouse): 1,9 | *fold change 1, gene expression level SERPINE1 (SERPINE1; male, C57BL/6, mouse): 5,4 | *fold change 2, gene expression level SERPINE1 (SERPINE1; male, C57BL/6, mouse): 1,9 | *fold change 3, gene expression level SERPINE1 (SERPINE1; male, C57BL/6, mouse): 1,4 | *fold change 4, gene expression level SERPINE1 (SERPINE1; male, C57BL/6, mouse): -1,4 | *fold change 5, gene expression level SERPINE1 (SERPINE1; male, C57BL/6, mouse): -2,9 | *fold change 1, gene expression level BAAT (BAAT; male, C57BL/6, mouse): 1,8 | *fold change 2, gene expression level BAAT (BAAT; male, C57BL/6, mouse): 1,7 | *fold change 3, gene expression level BAAT (BAAT; male, C57BL/6, mouse): 1,1 | *fold change 4, gene expression level BAAT (BAAT; male, C57BL/6, mouse): -1,3 | *fold change 5, gene expression level BAAT (BAAT; male, C57BL/6, mouse): 1,3 | *fold change 1, gene expression level KLF15 (KLF15; male, C57BL/6, mouse): 1,2 | *fold change 2, gene expression level KLF15 (KLF15; male, C57BL/6, mouse): 2,4 | *fold change 3, gene expression level KLF15 (KLF15; male, C57BL/6, mouse): 1,0 | *fold change 4, gene expression level KLF15 (KLF15; male, C57BL/6, mouse): 1,1 | *fold change 5, gene expression level KLF15 (KLF15; male, C57BL/6, mouse): 1,2
Compound: NNC(=O)c1ccncc1 [ISONZ, isoniazid]
highest concentration that did not cause significant increase of toxicity (PCLS; male, C57BL/6, mouse): 1000 µM

Compound: C[n+]1ccc(-c2cc[n+](C)cc2)cc1 [PQ, paraquat]
*fold change 1, gene expression level Bcl2111 (Bcl2l11): 1,3 | *fold change 2, gene expression level Bcl2111 (Bcl2l11): 1,1 | *fold change 3, gene expression level Bcl2111 (Bcl2l11): 1,1 | *fold change 4, gene expression level Bcl2111 (Bcl2l11): 1,2 | *fold change 5, gene expression level Bcl2111 (Bcl2l11): 1,1 | *fold change 1, gene expression level Parp 16 (Parp16): 1,6 | *fold change 2, gene expression level Parp 16 (Parp16): 1,0 | *fold change 3, gene expression level Parp 16 (Parp16): 1,0 | *fold change 4, gene expression level Parp 16 (Parp16): 1,1 | *fold change 5, gene expression level Parp 16 (Parp16): 1,4 | *fold change 1, gene expression level Mras (Mras): 1,4 | *fold change 2, gene expression level Mras (Mras): 1,3 | *fold change 3, gene expression level Mras (Mras): 1,1 | *fold change 4, gene expression level Mras (Mras): 1,1 | *fold change 5, gene expression level Mras (Mras): 1,4 | *fold change 1, gene expression level Myo 1e (Myo1e): 1,1 | *fold change 2, gene expression level Myo 1e (Myo1e): 1,4 | *fold change 3, gene expression level Myo 1e (Myo1e): 1,1 | *fold change 4, gene expression level Myo 1e (Myo1e): 1,2 | *fold change 5, gene expression level Myo 1e (Myo1e): 1,2 | *fold change 1, gene expression level Nme6 (Nme6): 1,1 | *fold change 2, gene expression level Nme6 (Nme6): -1,2 | *fold change 3, gene expression level Nme6 (Nme6): 1,0 | *fold change 4, gene expression level Nme6 (Nme6): 1,1 | *fold change 5, gene expression level Nme6 (Nme6): 1,2 | *fold change 1, gene expression level ABCG5 (ABCG5): 1,1 | *fold change 2, gene expression level ABCG5 (ABCG5): 1,1 | *fold change 3, gene expression level ABCG5 (ABCG5): 1,7 | *fold change 4, gene expression level ABCG5 (ABCG5): -1,3 | *fold change 5, gene expression level ABCG5 (ABCG5): -1,6 | *fold change 1, gene expression level ABCG8 (ABCG8): 1,0 | *fold change 2, gene expression level ABCG8 (ABCG8): -1,2 | *fold change 3, gene expression level ABCG8 (ABCG8): 1,8 | *fold change 4, gene expression level ABCG8 (ABCG8): -1,3 | *fold change 5, gene expression level ABCG8 (ABCG8): -1,4 | *fold change 1, gene expression level SERPINE1 (SERPINE1): 2,7 | *fold change 2, gene expression level SERPINE1 (SERPINE1): 2,3 | *fold change 3, gene expression level SERPINE1 (SERPINE1): 2,7 | *fold change 4, gene expression level SERPINE1 (SERPINE1): 1,3 | *fold change 5, gene expression level SERPINE1 (SERPINE1): 1,9 | MW test, gene expression level SERPINE1 (SERPINE1; Mann-Whitney test vs controls, 5 mice, mouse PCLS, same concentrations as fold change columns): * (A p-value <0.05 was considered significant) | *fold change 1, gene expression level BAAT (BAAT): -1,2 | *fold change 2, gene expression level BAAT (BAAT): -1,0 | *fold change 3, gene expression level BAAT (BAAT): 1,7 | *fold change 4, gene expression level BAAT (BAAT): 1,1 | *fold change 5, gene expression level BAAT (BAAT): -1,4 | *fold change 1, gene expression level KLF15 (KLF15): 1,3 | *fold change 2, gene expression level KLF15 (KLF15): -1,0 | *fold change 3, gene expression level KLF15 (KLF15): 1,3 | *fold change 4, gene expression level KLF15 (KLF15): 1,1 | *fold change 5, gene expression level KLF15 (KLF15): -1,2 | highest concentration that did not cause significant increase of toxicity (PCLS; mouse PCLS, LDH, ATP, and protein assay, concentration then used in exposure experiments): 5 µM
